# Assay results as given in article PMC4252262 (Chemico-biological interactions, 2014).
# Several values for one entry are separate records, joined by “and”; a condition that tells them apart may be missing. Equal entries are not always repeated. Where two headings read alike, the source gives them in different places.
# What was measured:
# Type in all cases: biochemical
# [1] = target: T1, human cytochrome P450_2A6 (Homo sapiens, UniProt P11509); test: Inhibition of P450 2A6
# T1 sequence (P11509 1-494): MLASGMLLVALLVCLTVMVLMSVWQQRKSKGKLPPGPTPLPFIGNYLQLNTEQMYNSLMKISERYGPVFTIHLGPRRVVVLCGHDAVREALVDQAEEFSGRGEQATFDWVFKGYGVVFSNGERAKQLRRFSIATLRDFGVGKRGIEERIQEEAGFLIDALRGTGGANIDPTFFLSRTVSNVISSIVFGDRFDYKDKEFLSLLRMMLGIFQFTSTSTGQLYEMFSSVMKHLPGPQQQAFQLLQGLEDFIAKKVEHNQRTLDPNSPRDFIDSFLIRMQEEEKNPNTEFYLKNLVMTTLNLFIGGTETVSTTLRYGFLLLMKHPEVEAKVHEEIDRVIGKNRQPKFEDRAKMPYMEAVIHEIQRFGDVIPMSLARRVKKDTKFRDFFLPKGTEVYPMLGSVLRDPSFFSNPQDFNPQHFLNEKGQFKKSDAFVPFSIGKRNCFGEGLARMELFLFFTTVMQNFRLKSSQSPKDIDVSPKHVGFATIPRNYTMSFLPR
# [2] = target: T2, expressed 2A6 (supersomes) (Homo sapiens, UniProt P11509); test: Aldehyde oxidation to carboxylic acid by expressed human P450 2A6 supersomes; conditions: 100-120 μM aldehyde, 1.0 mM NADPH, 45 min, 37 °C
# T2 sequence (P11509 1-494): T1 sequence (P11509 1-494)
# [3] = target: expressed cytochrome P450_2E1 in supersomes (Homo sapiens, UniProt P05181); test: Aldehyde oxidation to carboxylic acid by expressed human P450 2E1 supersomes; conditions: for NADPH-dependent oxidation of aldehyde by expressed 2E1: 100-120 μM aldehyde, 1.0 mM NADPH, 45 min, 37 °C; for effect on the rate of acid formation from trans-2-octenal: 1.0 mM added, 2E1 supersomes
# Chain of expressed cytochrome P450_2E1 in supersomes (P05181 whole entry): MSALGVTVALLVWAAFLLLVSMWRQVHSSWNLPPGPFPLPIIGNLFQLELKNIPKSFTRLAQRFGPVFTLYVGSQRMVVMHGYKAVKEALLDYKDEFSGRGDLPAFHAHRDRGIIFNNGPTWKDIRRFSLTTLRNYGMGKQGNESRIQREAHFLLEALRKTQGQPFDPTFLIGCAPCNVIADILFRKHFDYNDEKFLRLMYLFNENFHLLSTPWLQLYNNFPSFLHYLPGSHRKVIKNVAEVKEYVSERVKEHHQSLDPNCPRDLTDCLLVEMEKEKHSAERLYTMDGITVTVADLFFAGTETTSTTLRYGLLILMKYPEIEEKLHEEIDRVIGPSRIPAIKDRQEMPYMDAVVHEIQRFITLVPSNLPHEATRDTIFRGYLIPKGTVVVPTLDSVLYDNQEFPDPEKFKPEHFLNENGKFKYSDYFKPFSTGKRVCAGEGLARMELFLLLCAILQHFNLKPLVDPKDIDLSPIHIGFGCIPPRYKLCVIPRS
# [4] = target: 2E1 (Homo sapiens, UniProt P05181); conditions: 25 μM; 15 min pre-incubation at 37 °C in the presence of 1 mM NADPH; positive control
# Chain of 2E1 (P05181 whole entry): as above
# [5] = target: human cytochrome P450_2E1 (Homo sapiens, UniProt P05181); test: Inhibition of P450 2E1; conditions: for Ki: KI for inhibition of 2E1, competitive model, p-nitrophenol substrate; for fold difference in 2E1 KI, branched versus linear 10-carbon aldehyde: decanal vs citronellal, decenal vs citral
# Chain of human cytochrome P450_2E1 (P05181 whole entry): as above
# [6] = KI for inhibition of 2A6, competitive model, coumarin substrate
smiles,measurement,setting,value
"CCCCCCC=O [Heptyl Saturated, heptanal]",Ki,[1]; [6],15.8 ± 1.1 µM
CCCCC=O [Pentyl Saturated],Ki,[1],126 ± 16 µM
"CCCC/C=C/C=O [Heptyl Unsaturated, trans-2-heptenal]",NADPH-dependent oxidation of aldehyde by expressed 2A6,[2],no acid products
same,NADPH-dependent oxidation of aldehyde by expressed 2E1,[3],effective in the oxidation
C=CCCCCCCCCC=O [11-undecylenic aldehyde],loss of the activity of 2E1 after pre-incubation,[4],~ 50%
CCCCCC=O [Hexyl Saturated],Ki,[1],57 ± 7 µM
CCC/C=C/C=O [Hexyl Unsaturated],Ki,[1],33 ± 3 µM
CCC=CC=O [Pentyl Unsaturated],Ki,[1],1270 ± 150 µM
"CCCCCCC/C=C/C=O [Decyl Unsaturated, trans-2-decenal]",NADPH-dependent oxidation of aldehyde by expressed 2A6,[2],no acid products
same,NADPH-dependent oxidation of aldehyde by expressed 2E1,[3],effective in the oxidation
"O=C1O[C@H]([C@@H](O)CO)C(O)=C1O [ascorbate, reference compound]",effect on the rate of acid formation from trans-2-octenal,[3],no effect
CCCCCCCC=O [Octyl Saturated],Ki,[1],25 ± 2 µM
CCCCCCCCC=O [Nonyl Saturated],Ki,[1],55 ± 6 µM
"CC(C)=CCCC(C)=CC=O [citral, 3,7-dimethyl 2,6-octadienal]",Ki,[1]; [6],> 100 µM
same,Ki,[5],18.8 µM and 15.7 µM
same,mode of inhibition of 2E1,[5]; Michaelis-Menten model,reversible competitive inhibition
same,"fold difference in 2E1 KI, branched versus linear 10-carbon aldehyde",[5],5 fold
"CCCCCC/C=C/C=O [Nonyl Unsaturated, trans-2-nonenal]",NADPH-dependent oxidation of aldehyde by expressed 2A6,[2],no acid products
same,NADPH-dependent oxidation of aldehyde by expressed 2E1,[3],effective in the oxidation
"CCCCC/C=C/C=O [Octyl Unsaturated, trans-2-octenal]",NADPH-dependent oxidation of aldehyde by expressed 2A6,[2],no acid products
same,NADPH-dependent oxidation of aldehyde by expressed 2E1,[3],effective in the oxidation
"CCCCCCCCCC=O [Decyl Saturated, decanal]",Ki,[5],7 µM
same,"fold difference in 2E1 KI, branched versus linear 10-carbon aldehyde",[5],about 8 fold
"N[C@@H](CCC(=O)N[C@@H](CS)C(=O)NCC(=O)O)C(=O)O [glutathione, reference compound]",effect on the rate of acid formation from trans-2-octenal,[3],no effect
CCCCCCCC/C=C/C=O [Undecy Unsaturated],Ki,[1],103 ± 22 µM
"CCCCCCCCCCCC(=O)O [lauric acid, reference compound]",reduction of the activity of 2E1,[5]; concentration of 50 μM,50%
